Structures can show the parent of a compound that is named as a salt.

The subject of assay [1] is Human promyelocytic leukemia (HL-60) cells. Description: Cell viability (growth inhibition) assay, MTS. The following applies: 50% reduction in cell viability of HL-60 cells, 48 hr incubation. It is filed as cell-based. The method, then: In order to measure the apoptotic effect of compounds on the metabolic activity of viable cells, the following assay was performed on Human promyelocytic leukemia cells. The assay utilises the tetrazolium compound (3-(4,5-dimethylthiazol-2-yl)-5-(3-carboxymethoxyphenyl)-2-(4-sulfophenyl)-2H-tetrazolium, inner salt; (MTS) and an electron coupling reagent (phenazine methosulfate; (PMS). MTS is bioreduced by cells into a formazan product the optical absorbance of which is measured directly from 96 well assay plates. The conversion of MTS into aqueous, soluble formazan is accomplished by dehydrogenase enzymes found in metabolically active cells. The quantity of formazan product as measured by the amount of 490 nm absorbance is directly proportional to the number of living cells in culture.
The assay was based on the National Cancer Institute (NCI) protocol, briefly, cells were grown in RPMI 1640 media supplemented with 10% FCS (foetal calf serum) and kept at 37° C. in a humidified environment with 5% CO2.
For the growth inhibition assay, Human promyelocytic leukemia (HL-60) cells were seeded at a density of 10,000 cells per well in 96 well plates in a volume of 100 μl and allowed to grow for 24 h. Compounds were serially diluted in DMSO at concentrations 100 fold higher than used in the assay (100×). Compounds were freshly prepared for each experiment. The 100× stocks were then diluted to 2× stocks into media and immediately, 100 μl of this 2× stock was added to the cells to create the desired final concentration of drug with a DMSO concentration of 1%. One row of each 96 well plate was treated with DMSO alone as a control. Cells were then incubated for a further 48 hr. Metabolic activity was determined using MTS (Promega) (90% 1.6 mg/ml MTS, 10% 1.6 mg/ml PMS (phenazine methosulfate) made fresh in PBS). 50 μl of this mix was added to all wells of the plates and allowed to incubate for 1.5-2 hr. Plates were shaken gently for about 15 min and absorbance was read on a plate reader at 490 nm. Averages were taken of the readings at each point with standard deviation and plotted using MicroCal Origin.

The target in another assay is S1P1 human receptor (Homo sapiens (Human), UniProt P21453). Description: S1P1 [35S]-GTPgamaS binding assay (agonist activity). The settings on record: for EC50: GTPgamaS binding, agonist; for Efficacy (% of maximum): S1P1, relative to reference agonist S1P; for EC50S1P1/EC50S1P: potency at S1P1 relative to S1P. It is filed as biochemical. The method, then: Selected Compounds of the Examples were evaluated at Millipore Corporation, USA, using S1P1 receptor; [^35S]-GTPgamaS binding assay. A [^35S]-GTPgamaS binding assay at Millipore was conducted by GPCR Profiler™ Custom Service Laboratory, Temecula, Calif., Millipore, Inc. to monitor dose-dependent agonist selectivity for selected Examples against the S1P1 receptors. The assay was completed with sample compounds subjected to an eight-point, four-fold dose response curve with starting concentration of 10 μM. Selectivity was determined upon initial addition of compounds followed by a 30 minute incubation at 30° C. Following compound incubation, bounded [^35S]-GTPgamaS was determined by filtration and scintillation counting.
S1P1 human receptor, sequence (P21453 whole entry): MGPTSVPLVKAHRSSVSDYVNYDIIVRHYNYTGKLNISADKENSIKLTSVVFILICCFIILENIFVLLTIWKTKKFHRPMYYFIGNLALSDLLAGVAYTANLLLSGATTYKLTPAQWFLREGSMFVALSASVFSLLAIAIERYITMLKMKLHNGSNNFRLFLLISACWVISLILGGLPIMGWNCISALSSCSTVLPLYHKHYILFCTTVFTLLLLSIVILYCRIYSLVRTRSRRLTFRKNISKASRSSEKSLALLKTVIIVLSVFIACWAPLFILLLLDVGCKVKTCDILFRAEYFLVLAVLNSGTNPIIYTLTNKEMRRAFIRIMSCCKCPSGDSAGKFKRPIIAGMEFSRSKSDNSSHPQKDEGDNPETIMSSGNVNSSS
Independently, selected compounds were evaluated for S1P1 and S1P3 agonistic activity. The S1P1 assay system was GTPgama-S35 binding in membranes from CHO K1 cells, expressing S1P1 human receptor. The S1P3 assay system was calcium mobilization in CHO K1 cells expressing S1P3 human receptor. […] Compounds were tested initially at a concentration of 10 μM.

`NC(CO)(CO)CN1CCc2cc(OCc3cc4c(Cl)cc(Cl)cc4o3)ccc21` [Example 8, 2-Amino-2-((5-((4,6-dichlorobenzofuran-2-yl)methoxy)indolin-1-yl)methyl) propane-1,3-diol]: in assay [1] (Homo sapiens), the IC50 (as a rule, the point on the concentration scale where inhibition reaches its midpoint) turned out to be 1930 ± 580 nM. Besides, at S1P1 human receptor, the EC50 (commonly the concentration giving half of the maximal effect) was 131 nM, the “Efficacy (% of maximum)” value is given as 85% and the EC50S1P1/EC50S1P worked out at 23.
In assay [1], `CCCCCCCCOc1ccc(CCC(N)(CO)CO)cc1C12CC3CC(CC(C3)C1)C2.Cl` [Example 63, 2-Amino-2-(3-(1-admantyl)-4-(octyloxy)phenethyl)propane-1,3-diol hydrochloride salt] had an IC50 of 2400 ± 620 nM. At S1P1 human receptor, the EC50 was greater than 40000 nM and the EC50S1P1/EC50S1P was 3188.66.
In turn, `CCCCCCCCc1ccc2c(c1)CCN2CC(N)(CO)CO` [Example 3, 2-Amino-2-((5-octylindolin-1-yl)methyl)propane-1,3-diol] came in with an IC50 in assay [1] (Homo sapiens) of 3700 ± 1020 nM. Further, at S1P1 human receptor, the EC50 was found to be 2110 nM, the “Efficacy (% of maximum)” value is 73% and the EC50S1P1/EC50S1P came to 709.
In the same order, the values of `COc1ccc(-c2nc(-c3ccc4c(c3)CCN4CC(N)(CO)CO)no2)cc1Cl` [Example 7, 2-Amino-2-((5-(5-(3-chloro-4-methoxyphenyl)-1,2,4-oxadiazol-3-yl)indolin-1-yl)methyl)propane-1,3-diol] are 3070 ± 460 nM, 783 nM, 109% and 278.
In assay [1] (Homo sapiens), `CCCCCCCCc1ccc(CCC(N)(CO)CO)cc1` [FTY 720, 2-amino-2-(2-[4-octylphenyl]ethyl)-1,3-propanediol, reference compound] returned an IC50 of 3340 ± 190 nM. The “Efficacy (% of maximum)” value at S1P1 human receptor stood at 99%.
`CC1(C)C2CCC(CCOc3ccc(CCC(N)(CO)CO)cc3)C1C2.Cl` (centres unmarked) [Example 23, 2-Amino-2-(4-(2-(6,6-dimethylbicyclo[3.1.1]heptan-2-yl)ethoxy)phenethyl) propane-1,3-diol hydrochloride salt]: the IC50 in assay [1] (Homo sapiens) turned out to be 2260 ± 680 nM. Moreover, on S1P1 human receptor, the EC50 stood at 1240 nM, the “Efficacy (% of maximum)” value stood at 72% and the EC50S1P1/EC50S1P stood at 419.
In the same order, the values of `Cc1cc2cc(-c3nc(-c4cccc5c4CCN5CC(N)(CO)CO)no3)ccc2o1` [Example 42, 2-Amino-2-((4-(5-(2-methylbenzofuran-5-yl)-1,2,4-oxadiazol-3-yl)indolin-1-yl)methyl)propane-1,3-diol] are 1700 ± 100 nM, 1420 nM, 92% and 117.8.
In the same order, the values of `CCOc1ccc(-c2nc(-c3cccc4c3ccn4CC(N)(CO)CO)no2)cc1OCC` [Example 35, 2-Amino-2-((4-(5-(3,4-diethoxyphenyl)-1,2,4-oxadiazol-3-yl)-1H-indol-1-yl)methyl)propane-1,3-diol] are 1700 ± 100 nM, 54 nM, 106% and 4.75.
For the molecule `COc1ccc(-c2nc(-c3ccc4c(c3)CCN4CC(N)(CO)CO)no2)cc1C12CC3CC(CC(C3)C1)C2` [Example 30], half-maximal inhibition in assay [1] (IC50) was put at 3190 ± 260 nM. At S1P1 human receptor, the EC50 is greater than 55400 nM and the EC50S1P1/EC50S1P is listed as greater than 1000.
Molecule `NC(CO)(CO)CN1CCc2c(OCc3cc4c(Cl)cc(Cl)cc4o3)cccc21` [41(a), 2-Amino-2-((4-((4,6-dichlorobenzofuran-2-yl)methoxy)indolin-1-yl)methyl)propane-1,3-diol] displayed an IC50 in assay [1] (Homo sapiens) of 2550 ± 780 nM. For the same molecule, on S1P1 human receptor, the EC50 is greater than 1360 nM, the “Efficacy (% of maximum)” value is listed as 42% and the EC50S1P1/EC50S1P is 144.46.
As for “2-Amino-2-((5-(5-3-(1-admantyl)-3-methoxyphenyl)-1,2,4-oxadiazol-3-yl)indolin-1-yl)methyl)propane-1,3-diol [Example 33]”, in assay [1], the IC50 was 2910 ± 130 nM. This molecule also displayed an EC50S1P1/EC50S1P on S1P1 human receptor greater than 1000.
Turning to `CC(C)Oc1ccc(CCN(C)CC(N)(CO)CO)cc1C12CC3CC(CC(C3)C1)C2` [Example 60, 2-Amino-2-(((3-(1-admantyl)-4-isopropoxyphenethyl)(methyl)amino)methyl)propane-1,3-diol], the IC50 in assay [1] amounted to 3300 ± 260 nM.
`CCCCCCCCc1ccc2c(c1)CN(CC(N)(CO)CO)C2` [Example 2, 2-Amino-2-((5-octylisoindolin-2-yl)methyl)propane-1,3-diol]: the IC50 in assay [1] (Homo sapiens) was 3480 ± 140 nM. Further, on S1P1 human receptor, the EC50 turned out to be 1560 nM, the “Efficacy (% of maximum)” value turned out to be 91% and the EC50S1P1/EC50S1P turned out to be 593.
Regarding `CCCCCCCCc1ccc2c(c1)C(=O)C(=O)N2CC(N)(CO)CO` [Example 5, 1-(2-Amino-3-hydroxy-2-(hydroxymethyl)propyl)-5-octylindoline-2,3-dione], the IC50 in assay [1] (Homo sapiens) was found to be 5720 ± 2180 nM.
`CCOc1ccc(-c2nc(-c3cccc4c3ccn4CC(N)(CO)CO)no2)cc1Cl` [Example 49, 2-Amino-2-((4-(5-(3-chloro-4-ethoxyphenyl)-1,2,4-oxadiazol-3-yl)-1H-indol-1-yl)methyl)propane-1,3-diol]: in assay [1] (Homo sapiens), the IC50 is 10200 nM. At S1P1 human receptor, the EC50 stood at 114 nM, the “Efficacy (% of maximum)” value was determined as 112% and the EC50S1P1/EC50S1P was 9.26.
As for `CC(C)Oc1cc2c(cc1C13CC4CC(CC(C4)C1)C3)CN(CC(N)(CO)CO)CC2` [Example 61, 2-Amino-2-((7-(1-admantyl)-6-isopropoxy-3,4-dihydroisoquinolin-2(1H)-yl)methyl)propane-1,3-diol], the IC50 in assay [1] is 3270 ± 120 nM.
As to `CCOc1ccc(-c2nc(-c3ccc(C4=CCN(CC(N)(CO)CO)CC4)cc3)no2)cc1OCC` [Example 58, 2-Amino-2-((4-(4-(5-(3,4-diethoxyphenyl)-1,2,4-oxadiazol-3-yl)phenyl)-5,6-dihydropyridin-1(2H)-yl)methyl)propane-1,3-diol], in assay [1] (Homo sapiens), the IC50 came to 1700 nM. At S1P1 human receptor, the EC50 was greater than 2060 nM, the “Efficacy (% of maximum)” value came out at 60% and the EC50S1P1/EC50S1P is listed as 150.
On to `CCCCCCCCc1ccc2c(c1)CCCN2CC(N)(CO)CO` [Example 9, 2-Amino-2-((6-octyl-3,4-dihydroquinolin-1(2H)-yl)methyl)propane-1,3-diol], for which the IC50 in assay [1] (Homo sapiens) stood at 2460 ± 510 nM. At S1P1 human receptor, this molecule returned an EC50 greater than 860 nM and an EC50S1P1/EC50S1P greater than 1000.
In assay [1] (Homo sapiens), `NC(CO)(CO)CN1CCc2c(-c3noc(C45CC6CC(CC(C6)C4)C5)n3)cccc21` [Example 57, 2-Amino-2-((4-(5-(1-adamantyl)-1,2,4-oxadiazol-3-yl)indolin-1-yl)methyl) propane-1,3-diol] returned an IC50 of 1000 nM. Moreover, on S1P1 human receptor, the “Efficacy (% of maximum)” value was 82% and the EC50S1P1/EC50S1P is 268.44.
With `CCCCCCCCc1ccc2c(c1)CCN(CC(N)(CO)CO)C2` [Example 10, 2-Amino-2-((6-octyl-3,4-dihydroisoquinolin-2(1H)-yl)methyl)propane-1,3-diol], in assay [1] (Homo sapiens), the IC50 turned out to be 1380 ± 170 nM. On S1P1 human receptor, this molecule returned an EC50 greater than 510 nM and an EC50S1P1/EC50S1P greater than 1000.
`Cc1ccc(-c2ccc(CCC(N)(CO)CO)cc2)cc1` [Example 18, 2-Amino-2-(2-(4′-methylbiphenyl-4-yl)ethyl)propane-1,3-diol] gave an IC50 in assay [1] (Homo sapiens) of 7070 ± 230 nM.
`NC(CO)(CO)CN1CCc2c(-c3noc(-c4ccc(-c5ccccc5C(F)(F)F)cc4)n3)cccc21` [Example 36, 2-Amino-2-((4-(5-(2′-(trifluoromethyl)biphenyl-4-yl)-1,2,4-oxadiazol-3-yl)indolin-1-yl)methyl)propane-1,3-diol] had an IC50 in assay [1] (Homo sapiens) of 1310 ± 350 nM. On S1P1 human receptor, a half-maximal response (EC50) required 501 nM, the “Efficacy (% of maximum)” value is 99% and the EC50S1P1/EC50S1P came out at 65.
Molecule `CC(C)Oc1ccc(CCC(N)(CO)CO)cc1C12CC3CC(CC(C3)C1)C2` [Example 28, 2-Amino-2-(3-1-admantanyl-4-isopropoxyphenethyl)propane-1,3-diol hydrochloride salt] came in with an IC50 in assay [1] of 1560 ± 370 nM.

The values above are taken from patent publication US9181182B2, “S1P receptors modulators” (Akaal Pharma PTY LTD, priority 2008, dated 2015).
